Measured values as given in PubChem BioAssay (NCI).
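1) Cells in 96-well plates. 2) Compound, 48 h, 5 concentrations. 3) Linear interpolation between surrounding doses. 4) Unreached endpoint = highest concentration. TGI: total growth inhibition.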

Legend:
Experiment in all cases: NCI tumour cell line growth inhibition, 48 h
[1] = tested on: COLO 205 colon
[2] = tested on: OVCAR-4 ovarian
[3] = tested on: K-562 leukemia
[4] = tested on: UACC-62 melanoma
[5] = tested on: 786-0 renal
[6] = tested on: SK-MEL-28 melanoma
[7] = tested on: HCT-116 colon
[8] = tested on: OVCAR-5 ovarian
[9] = tested on: MALME-3M melanoma
[10] = tested on: SNB-75 CNS
[11] = tested on: HL-60(TB) leukemia

Structure (SMILES) | TGI [1] | TGI [2] | TGI [3] | TGI [4] | TGI [5] | TGI [6] | TGI [7] | TGI [8] | TGI [9] | TGI [10] | TGI [11]
CC(=O)OCC(=O)OC[C@H](OCc1ccccc1)[C@@H]1[C@H](OC(C)=O)C(=O)N1Cc1ccccc1 | > 100 µM | > 100 µM | > 100 µM | > 100 µM | > 100 µM | > 100 µM | > 100 µM | > 100 µM | > 100 µM | > 100 µM | 
O=C1CC(CC(=O)c2ccc(Br)cc2)C(=O)/C1=C(/O)c1ccc(Br)cc1 (stereo not given) | > 100 µM |  | > 100 µM | > 100 µM | > 100 µM | > 100 µM | > 100 µM | > 100 µM | > 100 µM |  | > 100 µM
COc1cc(C2(c3ncc[nH]3)SSSCC2O)ccc1O (stereo not given) | > 59.8 µM | > 63.7 µM | > 56.5 µM | > 51.2 µM |  | > 100 µM | > 100 µM | > 100 µM |  | > 100 µM | > 67.9 µM
CCCCCCCCCOCC(COP(=O)([O-])OCC[N+](C)(C)C)OC (stereo not given) | > 100 µM | > 100 µM | > 100 µM | > 100 µM |  | > 100 µM | > 100 µM | > 100 µM | > 100 µM | > 100 µM | > 100 µM
CCC(C)[C@@H](Nc1c(O)c2c(c(O)c1Cl)C(=O)C=CC2=O)C(=O)OC (stereo not given in full) | 4.02 µM | 8.12 µM | > 10 µM | > 10 µM | > 10 µM |  | 6.94 µM | > 10 µM | 5.14 µM | > 10 µM | 5.93 µM
COc1ccc(OC)c2c1C=CC(Br)=CC2 | > 1 µM | > 1 µM | 0.419 µM | 0.345 µM | 0.544 µM | > 1 µM | 0.672 µM |  | 0.312 µM |  | 
COC(=O)c1cc(NC(=O)Cc2c[nH]c3ccccc23)cn1C | > 100 µM | > 100 µM | > 100 µM | > 100 µM | > 100 µM | > 100 µM | > 100 µM | > 100 µM | > 100 µM |  | > 100 µM
CCOC(=O)/C=C(/C(=O)OCC)n1ccc(=O)n(Cc2cnnn2COCCOC(C)=O)c1=O | 9.73 µM | 41.5 µM | > 100 µM | 32.8 µM | 29.2 µM | 32.2 µM | 45.8 µM | 35.9 µM | 26.3 µM | > 100 µM | 
COC(=O)/C=C1/OC(c2ccccc2)=C(C)C1=O | 31.3 µM |  | 15 µM | 11.5 µM | 22.3 µM | 31.1 µM | 15.4 µM | 30.6 µM | 26.7 µM | 43 µM | 4.97 µM
NC1CCC(N(CC(=O)O)CC(=O)O)C(N(CC(=O)O)CC(=O)O)C1 (stereo not given) | > 100 µM | > 100 µM | > 100 µM | > 100 µM |  | > 100 µM | > 100 µM | > 100 µM | > 100 µM | > 100 µM | > 100 µM
CCC1(c2ccc(N3C(=O)c4cc(OC)c(OC)cc4C3=O)cc2)CCC(=O)NC1=O (stereo not given) | > 10 µM | > 10 µM | > 10 µM | > 10 µM | > 10 µM | > 10 µM | > 10 µM | > 10 µM | > 10 µM |  | > 10 µM
CCOC(=O)c1nc2ccc(C(F)(F)F)cc2nc1NCc1ccc(OC)c(OC)c1 | > 100 µM | > 100 µM | > 100 µM | > 100 µM | > 100 µM |  | > 100 µM | > 100 µM | > 100 µM | > 100 µM | > 100 µM
COc1cccc(C2c3cc4c(cc3OC(NNS(=O)(=O)c3ccc(C)cc3)C2C)OCO4)c1OC (stereo not given) | 3.79 µM |  | 6.79 µM | 33.2 µM | 68.3 µM | > 100 µM | 4.56 µM | 74.2 µM | 49.9 µM | 60.5 µM | 3.28 µM
CCOC(=O)/C(=N/Nc1ccccc1)N1C(=S)C=C(C)NN(C)C1=S | > 100 µM | > 100 µM | > 100 µM | > 100 µM |  | > 100 µM | > 100 µM | > 100 µM |  |  | > 100 µM
Clc1ccc(CCN[C@H]2CCCC[C@H]2N2CCCC2)cc1Cl | 29.8 µM | 89.4 µM | > 100 µM | 34.9 µM | 77 µM | 86.2 µM | > 100 µM | 78.1 µM | 30.3 µM |  | 50 µM
CC(=O)O[C@H]1C(=O)[C@@]2(C)[C@H]([C@H](OC(=O)c3ccccc3)[C@]3(O)C[C@H](OC(=O)[C@H](O)[C@@H](NC(=O)c4ccco4)c4ccccc4)C(C)=C1C3(C)C)[C@]1(OC(C)=O)CO[C@@H]1C[C@@H]2O |  | > 12.5 µM | < 0.00125 µM | > 12.5 µM | > 12.5 µM | > 12.5 µM | > 12.5 µM | > 12.5 µM |  |  | < 0.00125 µM
CCCc1cc(COC)c(C#N)c(=O)[nH]1 | > 100 µM | > 100 µM | > 100 µM | > 100 µM | > 100 µM | > 100 µM | > 100 µM | > 100 µM | > 100 µM |  | > 100 µM
COc1cccc(/C=C2\S/C(=N/Nc3nc(C)c(C)s3)NC2=O)c1O | > 100 µM | > 100 µM |  | > 100 µM | > 100 µM | > 100 µM | > 100 µM | > 100 µM |  | > 100 µM | > 100 µM
CN(C)N1C(=O)S/C(=C\c2ccc([N+](=O)[O-])cc2)C1=O | > 100 µM | > 100 µM |  | > 100 µM | > 100 µM | > 100 µM | > 100 µM | > 100 µM | > 100 µM | 98.7 µM | > 100 µM
COc1ccc2c(c1)/C(=C\c1c(Cl)[nH]c3ccccc13)C(=O)N2 | 6.6 µM |  | 12.2 µM | 20 µM | 17 µM | 8.05 µM | 10.8 µM | 26.8 µM | 19.2 µM |  | 10.8 µM
CSc1ccc(Nc2cc(=O)[nH]c(=O)[nH]2)cc1 | > 100 µM | > 100 µM | > 100 µM | > 100 µM | > 100 µM | > 100 µM | > 100 µM | > 100 µM | > 100 µM |  | > 100 µM
